Residues, ends and D or L forms follow the SMILES beside them.
Key:
[1] = biological target: PLEK (Homo sapiens, UniProt P08567); assay: nHU-MS peptide bait, prey PLEK
[2] = biological target: CCDC174 (Homo sapiens, UniProt Q6PII3); assay: nHU-MS peptide bait, prey CCDC174
[3] = biological target: T1, EHD1 (Homo sapiens, UniProt Q9H4M9); assay: nHU-MS peptide bait, prey EHD1; conditions: for BI: prey EHD1, MS7_Varjosalo
T1 sequence (Q9H4M9 1-534): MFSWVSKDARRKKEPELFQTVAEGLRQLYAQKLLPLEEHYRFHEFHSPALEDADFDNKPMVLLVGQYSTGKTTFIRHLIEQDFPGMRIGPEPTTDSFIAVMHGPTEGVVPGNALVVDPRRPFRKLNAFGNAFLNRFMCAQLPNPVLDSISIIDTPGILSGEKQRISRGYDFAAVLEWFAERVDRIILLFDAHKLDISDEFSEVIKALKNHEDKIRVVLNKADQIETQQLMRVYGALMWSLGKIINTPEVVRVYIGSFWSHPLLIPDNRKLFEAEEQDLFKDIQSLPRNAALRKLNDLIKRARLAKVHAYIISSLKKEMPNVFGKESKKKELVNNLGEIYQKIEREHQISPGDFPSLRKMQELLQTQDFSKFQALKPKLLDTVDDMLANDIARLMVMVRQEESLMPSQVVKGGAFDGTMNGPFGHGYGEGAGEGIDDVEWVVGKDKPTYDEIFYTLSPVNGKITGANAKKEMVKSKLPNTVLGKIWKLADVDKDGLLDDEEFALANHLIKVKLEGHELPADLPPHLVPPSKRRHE

[4] = biological target: SSBP2 (Homo sapiens, UniProt P81877+Q86U70); assay: nHU-MS peptide bait, prey SSBP2
[5] = biological target: AURKA (Homo sapiens, UniProt O14965); assay: nHU-MS peptide bait, prey AURKA
[6] = biological target: SSBP4 (Homo sapiens, UniProt Q86U70+Q9BWG4); assay: nHU-MS peptide bait, prey SSBP4
[7] = biological target: T2, PPP2R2A (Homo sapiens, UniProt P63151); assay: nHU-MS peptide bait, prey PPP2R2A; conditions: for Kd: pKapp
T2 sequence (P63151 1-447): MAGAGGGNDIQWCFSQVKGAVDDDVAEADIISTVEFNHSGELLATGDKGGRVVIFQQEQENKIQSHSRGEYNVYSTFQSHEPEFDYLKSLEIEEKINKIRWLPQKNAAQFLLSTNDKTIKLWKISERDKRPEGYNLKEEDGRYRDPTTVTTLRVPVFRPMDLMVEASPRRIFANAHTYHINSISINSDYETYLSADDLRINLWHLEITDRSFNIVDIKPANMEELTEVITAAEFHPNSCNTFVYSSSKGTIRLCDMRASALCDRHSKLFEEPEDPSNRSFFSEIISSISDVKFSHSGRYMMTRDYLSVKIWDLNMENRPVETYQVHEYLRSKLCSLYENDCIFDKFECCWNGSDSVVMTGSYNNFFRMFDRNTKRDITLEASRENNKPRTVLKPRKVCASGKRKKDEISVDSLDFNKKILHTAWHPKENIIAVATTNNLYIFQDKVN

[8] = biological target: HSPA5 (Homo sapiens, UniProt P11021); assay: nHU-MS peptide bait, prey HSPA5
Chain of HSPA5 (P11021 19-654): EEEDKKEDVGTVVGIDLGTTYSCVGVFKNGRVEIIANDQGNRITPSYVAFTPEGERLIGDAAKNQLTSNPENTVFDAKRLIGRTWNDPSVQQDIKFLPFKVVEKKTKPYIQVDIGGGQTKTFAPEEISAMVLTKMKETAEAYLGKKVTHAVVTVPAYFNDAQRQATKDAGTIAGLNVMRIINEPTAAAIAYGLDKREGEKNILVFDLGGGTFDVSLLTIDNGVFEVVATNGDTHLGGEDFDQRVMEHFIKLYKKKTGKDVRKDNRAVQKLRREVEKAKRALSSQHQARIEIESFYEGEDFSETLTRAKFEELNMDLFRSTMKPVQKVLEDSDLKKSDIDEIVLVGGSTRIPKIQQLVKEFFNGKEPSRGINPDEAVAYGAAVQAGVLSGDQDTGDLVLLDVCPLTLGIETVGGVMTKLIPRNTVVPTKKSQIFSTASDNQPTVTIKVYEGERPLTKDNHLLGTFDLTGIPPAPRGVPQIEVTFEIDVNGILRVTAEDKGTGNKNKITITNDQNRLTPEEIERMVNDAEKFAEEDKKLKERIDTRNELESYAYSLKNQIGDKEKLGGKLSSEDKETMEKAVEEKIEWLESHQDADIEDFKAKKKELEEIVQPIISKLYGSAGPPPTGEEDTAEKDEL

Chain of SSBP4 (Q9BWG4 whole entry): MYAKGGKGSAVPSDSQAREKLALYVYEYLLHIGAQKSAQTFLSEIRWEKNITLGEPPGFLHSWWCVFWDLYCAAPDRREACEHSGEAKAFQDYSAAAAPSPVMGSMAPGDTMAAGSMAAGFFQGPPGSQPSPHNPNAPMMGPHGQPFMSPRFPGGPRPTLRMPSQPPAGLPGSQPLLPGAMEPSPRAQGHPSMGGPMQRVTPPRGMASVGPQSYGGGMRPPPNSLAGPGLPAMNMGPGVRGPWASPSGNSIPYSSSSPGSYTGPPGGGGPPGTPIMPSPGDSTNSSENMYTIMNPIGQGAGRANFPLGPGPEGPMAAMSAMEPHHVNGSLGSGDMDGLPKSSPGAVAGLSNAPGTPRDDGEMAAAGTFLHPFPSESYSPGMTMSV
Chain of SSBP4 (Q86U70 whole entry): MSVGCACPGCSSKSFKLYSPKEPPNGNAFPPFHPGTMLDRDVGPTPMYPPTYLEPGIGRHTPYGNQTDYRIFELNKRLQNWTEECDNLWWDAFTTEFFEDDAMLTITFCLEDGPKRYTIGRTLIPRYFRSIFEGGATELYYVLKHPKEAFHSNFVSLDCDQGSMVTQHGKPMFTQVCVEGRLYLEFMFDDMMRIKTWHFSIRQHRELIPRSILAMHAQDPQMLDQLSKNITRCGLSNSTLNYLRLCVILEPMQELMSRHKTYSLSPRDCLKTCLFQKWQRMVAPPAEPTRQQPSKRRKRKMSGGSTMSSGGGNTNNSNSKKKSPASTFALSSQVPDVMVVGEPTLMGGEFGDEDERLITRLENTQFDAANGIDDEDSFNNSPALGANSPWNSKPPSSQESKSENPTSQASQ
Chain of CCDC174 (Q6PII3 whole entry): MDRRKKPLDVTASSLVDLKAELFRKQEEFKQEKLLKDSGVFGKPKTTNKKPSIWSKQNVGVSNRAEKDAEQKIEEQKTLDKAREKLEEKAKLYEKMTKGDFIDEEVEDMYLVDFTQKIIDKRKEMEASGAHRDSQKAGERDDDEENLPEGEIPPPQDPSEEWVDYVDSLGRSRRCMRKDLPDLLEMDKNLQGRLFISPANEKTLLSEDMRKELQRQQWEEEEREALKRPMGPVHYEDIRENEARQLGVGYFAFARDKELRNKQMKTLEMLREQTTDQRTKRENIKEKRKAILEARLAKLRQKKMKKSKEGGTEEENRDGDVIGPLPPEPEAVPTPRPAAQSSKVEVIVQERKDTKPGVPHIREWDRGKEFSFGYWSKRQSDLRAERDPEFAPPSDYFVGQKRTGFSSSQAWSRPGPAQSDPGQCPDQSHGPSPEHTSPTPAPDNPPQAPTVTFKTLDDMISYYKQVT
Chain of PLEK (P08567 whole entry): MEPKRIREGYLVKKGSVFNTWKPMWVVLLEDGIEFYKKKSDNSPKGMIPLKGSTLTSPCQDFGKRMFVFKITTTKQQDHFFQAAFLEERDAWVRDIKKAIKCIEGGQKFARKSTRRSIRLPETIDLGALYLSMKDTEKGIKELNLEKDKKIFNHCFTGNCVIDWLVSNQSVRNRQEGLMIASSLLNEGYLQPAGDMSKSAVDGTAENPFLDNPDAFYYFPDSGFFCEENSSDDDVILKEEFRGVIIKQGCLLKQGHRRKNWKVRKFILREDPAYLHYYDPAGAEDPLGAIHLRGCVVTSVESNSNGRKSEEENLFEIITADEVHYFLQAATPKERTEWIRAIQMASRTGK
Chain of AURKA (O14965 whole entry): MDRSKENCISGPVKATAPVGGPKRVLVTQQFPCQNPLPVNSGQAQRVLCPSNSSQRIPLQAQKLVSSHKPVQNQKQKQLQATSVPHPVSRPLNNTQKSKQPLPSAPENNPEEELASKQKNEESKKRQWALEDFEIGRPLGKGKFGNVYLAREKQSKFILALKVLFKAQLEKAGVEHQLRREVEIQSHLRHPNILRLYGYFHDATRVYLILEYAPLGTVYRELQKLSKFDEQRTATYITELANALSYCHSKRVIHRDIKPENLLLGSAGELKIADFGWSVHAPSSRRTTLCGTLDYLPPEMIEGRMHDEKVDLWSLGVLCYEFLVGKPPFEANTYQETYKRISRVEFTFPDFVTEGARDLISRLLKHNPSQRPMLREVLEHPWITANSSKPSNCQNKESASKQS
Chain of SSBP2 (P81877 whole entry): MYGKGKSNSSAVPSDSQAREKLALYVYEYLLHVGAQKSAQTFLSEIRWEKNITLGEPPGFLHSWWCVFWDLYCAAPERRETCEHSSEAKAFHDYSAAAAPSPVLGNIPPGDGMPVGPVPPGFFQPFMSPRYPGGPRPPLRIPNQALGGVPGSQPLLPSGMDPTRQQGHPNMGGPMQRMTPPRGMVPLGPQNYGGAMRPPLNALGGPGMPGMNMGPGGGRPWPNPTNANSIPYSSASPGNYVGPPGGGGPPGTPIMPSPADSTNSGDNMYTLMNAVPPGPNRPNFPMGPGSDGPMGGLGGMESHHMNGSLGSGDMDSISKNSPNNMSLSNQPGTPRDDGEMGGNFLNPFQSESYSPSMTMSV
Chain of SSBP2 (Q86U70 whole entry): as the sequence (Q86U70 whole entry) above

Row | Kd [1] | BI ([1]; prey PLEK, MS7_Varjosalo) | Kd [2] | BI ([2]; prey CCDC174, MS7_Varjosalo) | Kd [3] | BI [3] | Kd [4] | BI ([4]; prey SSBP2, MS8_Varjosalo) | Kd [5] | BI ([5]; prey AURKA, MS8_Varjosalo) | Kd [6] | BI ([6]; prey SSBP4, MS8_Varjosalo) | BI ([7]; MS5_Varjosalo) | BI ([7]; MS7_Varjosalo) | Kd ([7]; MS5_Varjosalo) | Kd ([7]; MS7_Varjosalo) | Kd [8] | BI ([8]; prey HSPA5, MS5_Varjosalo) | Compound
1 | 9.44 µM | 0.5145 | 10.9 µM | 0.4787 | 39.4 µM | 0.2025 | – | – | – | – | – | – | – | – | – | – | – | – | CC[C@H](C)[C@H](NC(=O)[C@@H](N)CCCNC(=N)N)C(=O)N1CCC[C@H]1C(=O)N[C@H](C(=O)N[C@@H](CC(C)C)C(=O)N[C@@H](CC(N)=O)C(=O)N1CCC[C@H]1C(=O)N[C@@H](Cc1ccccc1)C(=O)N[C@@H](CCC(=O)O)C(=O)N[C@@H](CO)C(=O)N1CCC[C@H]1C(=O)N[C@@H](CO)C(=O)N[C@@H](CC(=O)O)C(=O)N[C@@H](Cc1ccc(O)cc1)C(=O)N[C@@H](CO)C(=O)N[C@@H](CC(N)=O)C(=O)N[C@@H](CC(C)C)C(=O)N[C@@H](Cc1c[nH]cn1)C(=O)N[C@@H](CCC(=O)O)C(=O)N[C@@H](CCC(N)=O)C(=O)N[C@H](C(N)=O)[C@@H](C)O)C(C)C [BORA] (H-RIPVLNPFESPSDYSNLHEQT-NH2)
2 | – | – | – | – | – | – | 18.9 µM | 0.3462 | 28.6 µM | 0.2591 | 12.2 µM | 0.451 | – | – | – | – | – | – | CSCC[C@H](NC(=O)[C@@H]1CCCN1C(=O)[C@@H](NC(=O)[C@@H]1CCCN1C(=O)[C@@H]1CCCN1C(=O)[C@@H]1CCCN1C(=O)[C@H](C)NC(=O)[C@H](Cc1ccccc1)NC(=O)[C@H](CCC(=O)O)NC(=O)[C@@H](NC(=O)[C@H](CC(C)C)NC(=O)[C@@H](N)Cc1c[nH]cn1)[C@@H](C)O)[C@@H](C)O)C(=O)N[C@H](C(=O)N[C@@H](CC(=O)O)C(=O)N[C@@H](Cc1c[nH]cn1)C(=O)N[C@@H](CC(C)C)C(=O)N[C@H](C(=O)N[C@@H](C)C(=O)N[C@@H](CO)C(=O)N[C@@H](CC(N)=O)C(=O)N1CCC[C@H]1C(=O)N[C@@H](Cc1ccccc1)C(=O)N[C@@H](CCC(=O)O)C(=O)N[C@@H](CC(=O)O)C(=O)N[C@@H](CC(=O)O)C(=O)N[C@@H](Cc1ccccc1)C(=O)NCC(=O)N[C@@H](C)C(=O)N1CCC[C@H]1C(=O)N[C@@H](CCCCN)C(N)=O)C(C)C)C(C)C [PYGO2 57-86]
3 | – | – | – | – | 24.3 µM | 0.2916 | – | – | – | – | – | – | 0.2309 | 0.2507 | 33.3 µM | 29.9 µM | 19.9 µM | 0.3347 | CC[C@H](C)[C@H](NC(=O)[C@H](Cc1ccccc1)NC(=O)[C@@H]1CCCN1C(=O)[C@H](CC(N)=O)NC(=O)[C@@H]1CCCN1C(=O)[C@H](CO)NC(=O)[C@H](CO)NC(=O)[C@@H](N)CCCNC(=N)N)C(=O)N[C@H](C(=O)NCC(=O)N[C@@H](CC(C)C)C(=O)N[C@H](C(=O)N[C@@H](CCCNC(=N)N)C(=O)N[C@H](C(=O)N[C@@H](CC(N)=O)C(=O)N1CCC[C@H]1C(=O)N[C@@H](Cc1ccccc1)C(=O)N[C@@H](CO)C(=O)N[C@@H](CC(=O)O)C(=O)N[C@@H](CCCNC(=N)N)C(=O)N[C@H](C(=O)N[C@@H](C)C(=O)N[C@@H](C)C(=O)N1CCC[C@H]1C(=O)NCC(=O)N[C@@H](CC(N)=O)C(=O)N1CCC[C@H]1C(=O)N[C@@H](Cc1ccccc1)C(=O)N[C@@H](CCCNC(=N)N)C(=O)N[C@@H](C)C(=O)N[C@@H](CCCCN)C(=O)N[C@@H](CO)C(N)=O)[C@@H](C)O)[C@@H](C)O)[C@@H](C)O)[C@@H](C)O [SYNJ1_1390-1421] (H-RSSPNPFITGLTRTNPFSDRTAAPGNPFRAKS-NH2)
